Measurements taken from the supplement of paper PMC10307832.

Tests used:
Test in all cases: relative viability (nuclei count vs DMSO), 5 days (fraction); higher = more cells survive
[1] = compound: CC(C)=CC[C@@H](O)C1=CC(=O)c2c(O)ccc(O)c2C1=O [Shikonin] + CCNC(=O)c1noc(-c2cc(C(C)C)c(O)cc2O)c1-c1ccc(CN2CCOCC2)cc1 [Luminespib] (partner 0.01 µM)
In short: (§1)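 Medians of duplicate plates are given as relative viability. That measure is the nuclei count in treated wells divided by the count in vehicle wells. Counts were taken on 4× images of lung cancer cell lines in 1536-well plates, 5 days after pin-tool dosing the day after seeding with one drug alone or a fixed anchor-drug dose plus five library-drug doses (not always all listed) in √10 steps.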

[2] = compound: CC(C)=CC[C@@H](O)C1=CC(=O)c2c(O)ccc(O)c2C1=O [Shikonin] + CS(=O)(=O)N1CCN(Cc2cc3nc(-c4cccc5[nH]ncc45)nc(N4CCOCC4)c3s2)CC1 [Pictilisib] (partner 1 µM)
In short: as §1

[3] = compound: CC(C)N(CCCNC(=O)Nc1ccc(C(C)(C)C)cc1)C[C@H]1O[C@@H](n2ccc3c(N)ncnc32)[C@H](O)[C@@H]1O + COc1cccc2cc(-c3nc([C@H]4CC[C@H](C(=O)O)CC4)n4ncnc(N)c34)[nH]c12 [OSI-027] (partner 0.5 µM)
In short: as §1

[4] = compound: CC(C)N(CCCNC(=O)Nc1ccc(C(C)(C)C)cc1)C[C@H]1O[C@@H](n2ccc3c(N)ncnc32)[C@H](O)[C@@H]1O + NC(=O)Nc1cc(-c2cccc(F)c2)sc1C(=O)N[C@H]1CCCNC1 [AZD7762] (partner 0.2 µM)
In short: as §1

Cell Line	relative viability ([1]; first compound 0.01 µM)	relative viability ([1]; first compound 0.1 µM)	relative viability ([1]; first compound 0.3162 µM)	relative viability ([1]; first compound 1 µM)	relative viability ([2]; first compound 0.01 µM)	relative viability ([2]; first compound 0.1 µM)	relative viability ([2]; first compound 0.3162 µM)	relative viability ([2]; first compound 1 µM)	relative viability ([3]; first compound 0.08 µM)	relative viability ([3]; first compound 0.253 µM)	relative viability ([3]; first compound 0.8 µM)	relative viability ([3]; first compound 2.53 µM)	relative viability ([3]; first compound 8 µM)	relative viability ([4]; first compound 0.08 µM)	relative viability ([4]; first compound 0.253 µM)	relative viability ([4]; first compound 2.53 µM)	relative viability ([4]; first compound 8 µM)	relative viability ([4]; first compound 0.8 µM)
201T	0.971	1.13	1.03	1.07	0.621	0.754	0.669	0.796	0.417	0.864	0.624	0.77	0.903	0.6	0.554	0.56	0.622	–
A549	–	–	–	–	0.746	0.569	0.644	0.488	–	–	–	–	–	–	–	–	–	–
A-427	0.743	1.21	0.814	0.88	0.691	0.915	0.643	0.765	0.439	0.492	0.535	0.502	0.478	0.79	0.682	0.699	0.711	0.735
ABC-1	0.713	0.753	0.4	0.17	0.718	0.776	0.538	0.407	0.497	0.588	–	0.565	0.529	0.933	0.954	1.02	0.729	–
BEN	0.505	0.469	0.474	0.849	0.642	0.596	0.682	0.612	0.301	0.277	0.298	0.294	0.275	0.736	0.746	0.598	0.795	0.716
CAL-12T	0.473	0.415	0.257	0.42	0.368	0.409	0.35	0.414	0.603	0.498	0.635	0.579	0.53	0.572	0.617	0.668	0.565	0.665
COR-L23	0.848	0.675	0.767	0.357	1.09	0.831	0.889	0.741	0.758	0.739	0.697	0.735	0.689	–	–	–	–	–
COR-L 105	0.787	0.758	0.83	0.74	0.428	0.358	0.438	0.336	0.682	0.581	0.664	0.427	0.648	–	–	–	–	–
Calu-6	–	–	–	–	1.15	1.03	0.921	0.756	–	–	–	–	–	–	–	–	–	–
ChaGo-K-1	0.635	0.82	0.55	0.415	0.677	1.16	0.699	1.27	0.525	0.616	0.471	0.628	0.585	0.881	0.936	0.863	0.79	0.858
EBC-1	–	–	–	–	0.331	0.353	0.369	0.34	–	–	–	–	–	–	–	–	–	–
EKVX	0.907	0.892	0.915	0.922	0.46	0.451	0.496	0.448	0.718	0.713	0.71	0.704	0.668	0.7	0.716	0.767	0.621	0.702
EMC-BAC-2	1.25	1.44	1.3	1.24	0.541	0.536	0.593	0.654	0.384	0.485	0.42	0.412	0.355	1.08	1.1	1.03	0.979	1.08
EPLC-272H	0.167	0.303	0.209	0.261	0.299	0.383	0.292	0.36	0.275	0.423	0.274	0.283	0.259	0.262	0.238	0.259	0.35	0.21
H3255	0.869	0.973	1.05	0.865	0.487	0.477	0.495	0.427	0.564	0.614	0.685	0.543	0.538	0.922	0.864	0.823	0.678	0.827
HARA	0.864	0.841	0.775	0.936	0.226	0.527	0.477	0.43	0.454	0.536	0.621	0.568	0.375	0.344	0.244	0.655	0.299	0.334
HCC-15	0.358	0.888	0.242	0.402	0.699	0.789	0.732	0.832	0.641	0.815	0.6	0.812	0.655	1.24	1.35	0.95	1.28	–
HCC-44	0.814	1.14	1.28	1.23	0.663	0.835	0.564	0.728	0.507	0.509	0.432	0.572	0.552	1	1.1	1.04	0.929	0.897
HCC-78	–	–	–	–	0.185	0.234	0.188	0.249	0.376	0.388	0.356	0.364	0.346	0.613	0.519	0.576	0.64	0.583
HCC-366	–	–	–	–	0.164	0.137	0.165	0.127	0.916	1.27	0.716	0.816	0.641	0.208	0.237	0.104	0.249	0.277
HCC-827	0.518	0.887	0.638	0.64	1.12	0.786	1.03	0.871	0.699	0.838	–	0.722	0.665	0.259	0.252	0.203	0.242	0.403
